Assay results from patent publication US7691584B2, “Screening of compounds for OCT3 transporter activity” (XenoPort, Inc., priority 2005, dated 2010).

What was measured:
[1] = target: T1, hOCT3 (Homo sapiens, UniProt O75751); test: hOCT3 direct uptake assay (LC-MS-MS, CHO-TREx-hOCT3 cells); settings: specific uptake (induced minus non-induced)
[2] = target: T1, hOCT3; test: hOCT3 competition uptake assay (3H-MPP uptake into CHO-TREx-hOCT3 cells)
[3] = target: T2, PgP (Homo sapiens, UniProt P08183); test: Transwell monolayer efflux assay, MDCK cells with TREx-PgP; format: cell-based; settings: 2.5 nM 3H-vinblastine, in the presence of 250 μM verapamil
T2 construct: expressed in transfected cells; host or cells: MDCK cells transfected with tetracycline-inducible TREx-PgP
T2 sequence (P08183 whole entry): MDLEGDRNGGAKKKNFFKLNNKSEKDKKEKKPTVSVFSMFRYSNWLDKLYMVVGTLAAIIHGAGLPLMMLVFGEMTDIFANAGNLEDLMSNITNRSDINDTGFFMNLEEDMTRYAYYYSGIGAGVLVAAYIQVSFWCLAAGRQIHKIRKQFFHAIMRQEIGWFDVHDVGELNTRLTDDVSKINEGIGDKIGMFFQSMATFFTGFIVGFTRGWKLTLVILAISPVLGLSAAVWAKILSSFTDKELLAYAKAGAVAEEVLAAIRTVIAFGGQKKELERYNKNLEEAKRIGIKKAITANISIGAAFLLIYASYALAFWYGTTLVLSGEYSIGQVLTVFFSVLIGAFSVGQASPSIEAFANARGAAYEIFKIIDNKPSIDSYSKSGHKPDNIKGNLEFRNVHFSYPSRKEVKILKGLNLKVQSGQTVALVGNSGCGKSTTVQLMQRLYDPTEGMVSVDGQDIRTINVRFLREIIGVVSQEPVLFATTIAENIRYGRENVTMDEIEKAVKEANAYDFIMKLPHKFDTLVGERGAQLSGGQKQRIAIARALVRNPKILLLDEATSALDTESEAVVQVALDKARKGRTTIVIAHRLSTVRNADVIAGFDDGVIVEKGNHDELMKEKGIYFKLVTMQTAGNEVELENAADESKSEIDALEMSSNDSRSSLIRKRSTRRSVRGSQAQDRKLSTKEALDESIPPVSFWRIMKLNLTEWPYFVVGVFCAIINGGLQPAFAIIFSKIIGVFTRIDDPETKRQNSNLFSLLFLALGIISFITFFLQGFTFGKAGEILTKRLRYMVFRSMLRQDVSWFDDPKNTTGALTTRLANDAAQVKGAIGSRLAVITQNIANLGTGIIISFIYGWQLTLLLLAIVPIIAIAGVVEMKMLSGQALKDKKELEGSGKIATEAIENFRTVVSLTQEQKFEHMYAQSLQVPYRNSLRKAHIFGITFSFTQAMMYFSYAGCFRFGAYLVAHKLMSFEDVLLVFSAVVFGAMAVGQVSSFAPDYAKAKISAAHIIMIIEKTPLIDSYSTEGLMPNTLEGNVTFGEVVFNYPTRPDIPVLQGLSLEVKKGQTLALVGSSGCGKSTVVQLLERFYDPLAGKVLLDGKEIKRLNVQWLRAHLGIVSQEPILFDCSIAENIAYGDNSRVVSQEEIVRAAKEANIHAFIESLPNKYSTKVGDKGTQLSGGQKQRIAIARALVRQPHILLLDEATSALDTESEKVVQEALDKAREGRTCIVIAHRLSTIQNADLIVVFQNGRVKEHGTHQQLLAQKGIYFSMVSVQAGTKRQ
Experimental: Transwell monolayer efflux assays can be performed by transfecting MDCK cells with the tetracycline-inducible TREx-PgP expression vector. The cells optionally can be transfected with a nucleic acid encoding the transporter of interest. The transfected cells are seeded on polycarbonate filter membranes in transwell dishes and grown for 3-5 days, yielding a polarized monolayer with tight junctions between cells.

[4] = substrate: NCCc1c[nH]cn1; test: cells, lysate or membranes; settings: other: CHO-TREx-hOCT3 cells, specific uptake (induced minus non-induced)

NCCc1c[nH]cn1 [Histamine, histamine]
Direct Uptake Vmax [1]: 4.6 pmol/min/well | IC50 [2]: 150 µM | uptake of labeled MPP with increasing concentration of unlabeled competitor ([2]; cells induced to express OCT3, FIG. 2): decreased

CC[C@]1(O)C[C@@H]2CN(CCc3c([nH]c4ccccc34)[C@@](C(=O)OC)(c3cc4c(cc3OC)N(C)[C@H]3[C@@](O)(C(=O)OC)[C@H](OC(C)=O)[C@]5(CC)C=CCN6CC[C@]43[C@@H]65)C2)C1 [^3H-vinblastine, vinblastine]
apical to basolateral transport [3]: strongly increased | basolateral to apical transport [3]: strongly decreased

B1: hOCT3 (Homo sapiens) (protein)
chain: MPSFDEALQRVGEFGRFQRRVFLLLCLTGVTFAFLFVGVVFLGTQPDHYWCRGPSAAALAERCGWSPEEEWNRTAPASRGPEPPERRGRCQRYLLEAANDSASATSALSCADPLAAFPNRSAPLVPCRGGWRYAQAHSTIVSEFDLVCVNAWMLDLTQAILNLGFLTGAFTLGYAADRYGRIVIYLLSCLGVGVTGVVVAFAPNFPVFVIFRFLQGVFGKGTWMTCYVIVTEIVGSKQRRIVGIVIQMFFTLGIIILPGIAYFIPNWQGIQLAITLPSFLFLLYYWVVPESPRWLITRKKGDKALQILRRIAKCNGKYLSSNYSEITVTDEEVSNPSFLDLVRTPQMRKCTLILMFAWFTSAVVYQGLVMRLGIIGGNLYIDFFISGVVELPGALLILLTIERLGRRLPFAASNIVAGVACLVTAFLPEGIAWLRTTVATLGRLGITMAFEIVYLVNSELYPTTLRNFGVSLCSGLCDFGGIIAPFLLFRLAAVWLELPLIIFGILASICGGLVMLLPETKGIALPETVDDVEKLGSPHSCKCGRNKKTPVSRSHL
Km [4]: 110 µM
